The record followed here is patent US11236046B2, “Substituted heterocyclic sulfonamide compounds useful as TRPA1 modulators” (Genentech, Inc., priority 2013, dated 2022).

Broadly, the IC50 is the concentration that inhibits the measured activity by half.

Each structure is given as a SMILES string.

Sequence of human TRPA1 (O75762 whole entry): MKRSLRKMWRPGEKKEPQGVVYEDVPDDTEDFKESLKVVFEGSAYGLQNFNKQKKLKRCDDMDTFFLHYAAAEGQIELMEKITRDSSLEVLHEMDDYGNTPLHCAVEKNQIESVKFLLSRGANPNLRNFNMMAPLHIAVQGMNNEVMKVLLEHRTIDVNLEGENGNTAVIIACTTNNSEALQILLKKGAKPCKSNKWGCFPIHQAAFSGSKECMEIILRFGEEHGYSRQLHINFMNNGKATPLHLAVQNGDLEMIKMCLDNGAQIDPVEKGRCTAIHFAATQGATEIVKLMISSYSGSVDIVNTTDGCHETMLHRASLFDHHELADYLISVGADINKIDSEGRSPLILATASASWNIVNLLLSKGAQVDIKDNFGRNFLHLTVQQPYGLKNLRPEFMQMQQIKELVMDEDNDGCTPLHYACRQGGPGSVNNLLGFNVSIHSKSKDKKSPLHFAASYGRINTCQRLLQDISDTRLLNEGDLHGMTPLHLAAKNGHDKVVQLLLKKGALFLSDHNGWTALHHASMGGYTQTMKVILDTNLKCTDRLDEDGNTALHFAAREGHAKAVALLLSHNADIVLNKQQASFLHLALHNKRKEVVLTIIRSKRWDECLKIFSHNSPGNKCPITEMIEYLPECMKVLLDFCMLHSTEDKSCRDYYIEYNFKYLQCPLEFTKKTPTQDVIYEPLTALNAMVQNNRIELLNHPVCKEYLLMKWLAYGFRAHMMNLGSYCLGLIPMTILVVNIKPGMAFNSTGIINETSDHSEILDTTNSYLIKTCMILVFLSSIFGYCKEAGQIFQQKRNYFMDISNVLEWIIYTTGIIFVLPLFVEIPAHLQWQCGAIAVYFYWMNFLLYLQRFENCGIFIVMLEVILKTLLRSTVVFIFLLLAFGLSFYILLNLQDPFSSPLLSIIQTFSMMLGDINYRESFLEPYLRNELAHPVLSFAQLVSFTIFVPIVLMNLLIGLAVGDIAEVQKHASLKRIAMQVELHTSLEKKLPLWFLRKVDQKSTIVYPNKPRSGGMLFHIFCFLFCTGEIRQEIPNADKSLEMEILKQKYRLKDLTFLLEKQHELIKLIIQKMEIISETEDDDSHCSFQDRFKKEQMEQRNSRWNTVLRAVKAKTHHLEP

For this assay, the target named is human TRPA1 (Homo sapiens (Human), UniProt O75762). Kind of assay: FLIPR Tetra calcium influx assay, block of cinnamaldehyde-induced calcium influx in CHO cells expressing TRPA1 (human). Particulars: 20 min compound incubation, 75 uM cinnamaldehyde (~EC80), Hill coefficient fixed to 1.5, read-out: hTRPA1 AUC IC50. Format: cell-based. The protocol:
IC50 Determinations of Exemplified Compounds.
IC50s (effective concentration) of compounds on the human and rat TRPA1 channels were determined using a FLIPR Tetra instrument. CHO cells expressing TRPA1 were plated into 384-well plates, incubated overnight at 37C, and loaded with BD calcium indicator dye for 1 hr at 37° C. followed by 15 minutes. at room temperature. The assay buffer was Hank's Balanced Salt Solution (HBSS) containing 20 mM HEPES (pH readjusted to 7.4) along with 0.02% BSA.
Following dye load and plate cool down, compounds were added to the cells using FLIPR Tetra. Plates were then incubated with compounds for 20 minutes at room temperature prior to adding agonist. Following this incubation, ˜EC80 concentration of cinnamaldehyde (75 uM for human TRPA1 and 45 uM for rat TRPA1) was added to active the channels and block of cinnamaldehyde induced calcium influx was measured.
Fixing the Hill coefficient will generally reduce variability of the IC50 determination. The IC50s were individually examined to make sure the MIN and MAX points were set correctly prior to validation of the results.
For `O=C(NCc1cc(F)cc(-n2ccc(C(F)(F)F)n2)c1)[C@@H]1C[C@@H](F)CN1S(=O)(=O)c1ccc(F)cc1` [Example 87, (2S,4R)-4-fluoro-1-(4-fluorophenyl)sulfonyl-N-[[3-fluoro-5-[3-(trifluoromethyl)pyrazol-1-yl]phenyl]methyl]pyrrolidine-2-carboxamide], the IC50 came out at 103 nM.

On to `O=C(NCc1cc(-c2ccc(C(F)F)cc2)c(F)cn1)[C@@H]1C[C@@H](F)CN1S(=O)(=O)c1ccc(F)cc1` [Example 88, (2S,4R)—N-[[4-[4-(difluoromethyl)phenyl]-5-fluoro-2-pyridyl]methyl]-4-fluoro-1-(4-fluorophenyl)sulfonyl-pyrrolidine-2-carboxamide], for which the IC50 worked out at 41 nM. Take `O=C(NCc1cc(F)cc(-c2ccc(C(F)(F)F)nn2)c1)[C@@H]1C[C@@H](F)CN1S(=O)(=O)c1ccc(F)cc1` [Example 89, (2S,4R)-4-fluoro-1-(4-fluorophenyl)sulfonyl-N-[[3-fluoro-5-[6-(trifluoromethyl)pyridazin-3-yl]phenyl]methyl]pyrrolidine-2-carboxamide]: the IC50 turned out to be 20 nM. As to `O=C(NCc1cc(F)cc(-c2cnc(C(F)F)cn2)c1)[C@@H]1C[C@@H](F)CN1S(=O)(=O)c1ccc(F)cc1` [Example 90, (2S,4R)—N-[[3-[5-(difluoromethyl)pyrazin-2-yl]-5-fluoro-phenyl]methyl]-4-fluoro-1-(4-fluorophenyl)sulfonyl-pyrrolidine-2-carboxamide], the IC50 turned out to be 62 nM. Under `O=C(NCc1cc(F)cc(-c2cnc(C(F)(F)F)nc2)c1)[C@@H]1C[C@@H](F)CN1S(=O)(=O)c1ccc(F)cc1` [Example 91, (2S,4R)-4-fluoro-1-(4-fluorophenyl)sulfonyl-N-[[3-fluoro-5-[2-(trifluoromethyl)pyrimidin-5-yl]phenyl]methyl]pyrrolidine-2-carboxamide] stands 14 nM; under `O=C(NCc1cc(-c2ccc3c(c2)OC(F)(F)O3)ncn1)[C@@H]1C[C@@H](F)CN1S(=O)(=O)c1ccc(F)cc1` [Example 92, (2S,4R)—N-[[6-(2,2-difluoro-2H-1,3-benzodioxol-5-yl)pyrimidin-4-yl]methyl]-4-fluoro-1-[(4-fluorobenzene)sulfonyl]pyrrolidine-2-carboxamide], 87 nM. Under `O=C(NCc1cc(-c2ccc(C(F)(F)F)c(F)c2)ncn1)[C@@H]1[C@@H](F)CCN1S(=O)(=O)c1ccc(F)cc1` [Example 93, (2R,3S)-3-fluoro-N-((6-(3-fluoro-4-(trifluoromethyl)phenyl)pyrimidin-4-yl)methyl)-1-(4-fluorophenylsulfonyl)pyrrolidine-2-carboxamide] stands 14 nM; under `O=C(NCc1cc(F)cc(-c2ccc(C(F)F)nc2)c1)[C@@H]1C[C@@H](F)CN1S(=O)(=O)c1ccc(F)cc1` [Example 94, (2S,4R)—N-[[3-[6-(difluoromethyl)-3-pyridyl]-5-fluoro-phenyl]methyl]-4-fluoro-1-(4-fluorophenyl)sulfonyl-pyrrolidine-2-carboxamide], 29 nM. Turning to `O=C(NCc1cc(F)cc(-c2ccc(C(F)(F)F)cn2)c1)[C@@H]1C[C@@H](F)CN1S(=O)(=O)c1ccc(F)cc1` [Example 95, (2S,4R)-4-fluoro-1-(4-fluorophenyl)sulfonyl-N-[[3-fluoro-5-[5-(trifluoromethyl)-2-pyridyl]phenyl]methyl]pyrrolidine-2-carboxamide], the IC50 was 12 nM. Consider `Cc1cnc(CNC(=O)[C@@H]2C[C@@H](F)CN2S(=O)(=O)c2ccc(F)cc2)cc1-c1ccc(C(F)(F)F)nc1` [Example 96, (2S,4R)-4-fluoro-1-(4-fluorophenyl)sulfonyl-N-[[5-methyl-4-[6-(trifluoromethyl)-3-pyridyl]-2-pyridyl]methyl]pyrrolidine-2-carboxamide], for which the IC50 amounted to 162 nM. In the case of `O=C(NCc1ccc(F)c(-c2cnc(C(F)(F)F)cn2)c1)[C@@H]1[C@@H](F)CCN1S(=O)(=O)c1ccc(F)cc1` [Example 97, (2R,3S)-3-fluoro-N-([4-fluoro-3-[5-(trifluoromethyl)pyrazin-2-yl]phenyl]methyl)-1-[(4-fluorobenzene)sulfonyl]pyrrolidine-2-carboxamide] it was 24 nM; in that of `O=C(NCc1cc(F)cc(-c2cnc(C(F)(F)F)cn2)c1)[C@@H]1[C@@H](F)CCN1S(=O)(=O)c1ccc(F)cc1` [Example 98, (2R,3S)-3-fluoro-N-([3-fluoro-5-[5-(trifluoromethyl)pyrazin-2-yl]phenyl]methyl)-1-[(4-fluorobenzene)sulfonyl]pyrrolidine-2-carboxamide], 4 nM; in that of `O=C(NCc1cc(-c2cnc(C(F)(F)F)cn2)c(F)cn1)[C@@H]1C[C@@H](F)CN1S(=O)(=O)c1ccc(F)cc1` [Example 102, (2S,4R)-4-fluoro-N-([5-fluoro-4-[5-(trifluoromethyl)pyrazin-2-yl]pyridin-2-yl]methyl)-1-[(4-fluorobenzene)sulfonyl]pyrrolidine-2-carboxamide], 66 nM.

In the case of `COc1nn(-c2ccc(C(F)(F)F)nc2)cc1CNC(=O)[C@@H]1[C@@H](F)CCN1S(=O)(=O)c1ccc(F)cc1` [Example 103, (2R,3S)-3-fluoro-1-(4-fluorophenylsulfonyl)-N-((3-methoxy-1-(6-(trifluoromethyl)pyridin-3-yl)-1H-pyrazol-4-yl)methyl)pyrrolidine-2-carboxamide], the IC50 is 26 nM. In the case of `O=C(NCc1cc(-c2ccc(OC(F)(F)F)c(F)c2)ncn1)[C@@H]1C[C@@H](F)CN1S(=O)(=O)c1ccc(F)cc1` [Example 104, (2S,4R)-4-fluoro-N-([6-[3-fluoro-4-(trifluoromethoxy)phenyl]pyrimidin-4-yl]methyl)-1-[(4-fluorobenzene)sulfonyl]pyrrolidine-2-carboxamide] it was 72 nM; in that of `CNc1nc(CNC(=O)[C@@H]2C[C@@H](F)CN2S(=O)(=O)c2ccc(F)cc2)cc(-c2ccc(C(F)(F)F)cc2)n1` [Example 105, (2S,4R)-4-fluoro-1-[(4-fluorobenzene)sulfonyl]-N-[[2-(methylamino)-6-[4-(trifluoromethyl)phenyl]pyrimidin-4-yl]methyl]pyrrolidine-2-carboxamide], 128 nM; in that of `COc1cnc(CNC(=O)[C@@H]2C[C@@H](F)CN2S(=O)(=O)c2ccc(F)cc2)cc1-c1ccc(C(F)(F)F)nc1` [Example 108, (2S,4R)-4-fluoro-1-[(4-fluorobenzene)sulfonyl]-N-([5-methoxy-4-[6-(trifluoromethyl)pyridin-3-yl]pyridin-2-yl]methyl)pyrrolidine-2-carboxamide], 256 nM. In the case of `COc1cnc(CNC(=O)[C@]2(C)C[C@@H](F)CN2S(=O)(=O)c2ccc(F)cc2)cc1-c1ccc(C(F)(F)F)nc1` [Example 109, (2S,4R)-4-fluoro-1-(4-fluorophenyl)sulfonyl-N-[[5-methoxy-4-[6-(trifluoromethyl)-3-pyridyl]-2-pyridyl]methyl]-2-methyl-pyrrolidine-2-carboxamide] it was 164 nM; in that of `COc1nn(-c2ccc(C(F)(F)F)cc2)cc1CNC(=O)[C@@H]1C[C@@H](C#N)CN1S(=O)(=O)c1ccc(F)cc1` [Example 110, (2S,4R)-4-cyano-1-[(4-fluorobenzene)sulfonyl]-N-([3-methoxy-1-[4-(trifluoromethyl)phenyl]-1H-pyrazol-4-yl]methyl)pyrrolidine-2-carboxamide], 165 nM. Regarding `O=C(NCc1cc(-c2ccc(OC(F)(F)F)cc2)ncn1)[C@@H]1[C@@H](F)CCN1S(=O)(=O)c1ccc(F)cc1` [Example 111, (2R,3S)-3-fluoro-1-(4-fluorophenyl)sulfonyl-N-[[6-[4-(trifluoromethoxy)phenyl]pyrimidin-4-yl]methyl]pyrrolidine-2-carboxamide], the IC50 came to 7 nM. Regarding `N#Cc1cc(CNC(=O)[C@@H]2C[C@@H](F)CN2S(=O)(=O)c2ccc(F)cc2)cc(-c2ccc(C(F)(F)F)nc2)c1` [Example 112, (2S,4R)—N-[[3-cyano-5-[6-(trifluoromethyl)-3-pyridyl]phenyl]methyl]-4-fluoro-1-(4-fluorophenyl)sulfonyl-pyrrolidine-2-carboxamide], the IC50 was determined as 48 nM. Under `O=C(NCc1cc(-c2ccc(C(F)(F)F)cc2F)ncn1)[C@@H]1C[C@@H](F)CN1S(=O)(=O)c1ccc(F)cc1` [Example 113, (2S,4R)-4-fluoro-N-((6-(2-fluoro-4-(trifluoromethyl)phenyl)pyrimidin-4-yl)methyl)-1-(4-fluorophenylsulfonyl)pyrrolidine-2-carboxamide] stands 161 nM; under `O=C(NCc1cc(-c2ccc(C(F)(F)F)c(F)c2)ncn1)[C@@H]1C[C@@H](F)CN1S(=O)(=O)c1ccc(F)cc1` [Example 114, (2S,4R)-4-fluoro-N-([6-[3-fluoro-4-(trifluoromethyl)phenyl]pyrimidin-4-yl]methyl)-1-[(4-fluorobenzene)sulfonyl]pyrrolidine-2-carboxamide], 26 nM. As for `O=C(NCc1cc(-c2ccc(C(F)(F)F)nc2)c(F)cn1)[C@@H]1[C@@H](F)CCN1S(=O)(=O)c1ccc(F)cc1` [Example 115, (2R,3S)-3-fluoro-1-(4-fluorophenyl)sulfonyl-N-[[5-fluoro-4-[6-(trifluoromethyl)-3-pyridyl]-2-pyridyl]methyl]pyrrolidine-2-carboxamide], the IC50 is 13 nM.
